Measurements published in ChEMBL document CHEMBL6153087, “Emoquine-1: A Hybrid Molecule Efficient against Multidrug-Resistant Plasmodium Parasites, Including the Artemisinin-Resistant Quiescent Stage, and Also Active In Vivo” (J Med Chem, 2025).
pIC50: −log10 of the molar value. Calls of active or inactive are those of the source. The rule behind the calls is not given here.

Experiments:
Plasmodium falciparum [1] = experiment: Antiplasmodial activity against artemisinin-resistant Plasmodium falciparum F32 assessed as inhibition of parasite growth incubated for 48 hrs of SYBR green fluorescence-based method; format: functional, organism-based; conditions: F32, 48 h
[2] = Cytotoxicity against African green monkey Vero cells assessed as cell metabolic activity incubated for 48 hrs by MTT assay; format: toxicity, cell-based; conditions: chlorocebus sabaeus
[3] = Selectivity index, ratio of CC50 for cytotoxicity against African green monkey Vero cells to IC50 for antiplasmodial activity against artemisinin-resistant Plasmodium falciparum F32; format: toxicity, cell-based; conditions: read-out: Ratio CC50/IC50
Heme [4] = experiment: Inhibition of heme polymerization in acetate buffer at pH 5 assessed as reduction in beta-hematin formation at 5 equiv incubated for 18 hrs by infrared spectroscopic analysis relative to control
Plasmodium falciparum [5] = experiment: Antiplasmodial activity against artemisinin-sensitive Plasmodium falciparum F32 assessed as inhibition of parasite growth incubated for 48 hrs of SYBR green fluorescence-based method; format: functional, organism-based; conditions: F32, 48 h
Plasmodium falciparum [6] = experiment: (§1) Antiplasmodial activity against synchronized ring stage DHA-induced quiescent artemisinin-resistant Plasmodium falciparum F32 assessed as decrease in parasite recrudescence at 1 uM pretreated with dihydroartemisinin for 6 hrs followed by compound administration for 48 hrs in presence of dihydroartemisinin by quiescent-stage survival assay; format: functional, organism-based
[7] = system: Plasmodium vinckei petteri; experiment: Antiplasmodial activity Plasmodium vinckei petteri infected in female Swiss albino mouse model assessed as reduction in parasitemia administered orally for 4 days and measured on day 5; format: functional; conditions: 120 h, route po, time 5 day
[8] = system: Plasmodium vinckei petteri; experiment: Antiplasmodial activity Plasmodium vinckei petteri infected in female Swiss albino mouse model assessed as reduction in parasitemia administered intraperitoneally for 4 days and measured on day 5; format: functional; conditions: 120 h, route ip, time 5 day
Plasmodium falciparum [9] = experiment: Antiplasmodial activity against synchronized ring stage artemisinin-resistant Plasmodium falciparum F32 assessed as number of days required to reach 3% initial parasitemia by measuring median recrudescence time at 18 uM incubated for 48 hrs by recrudescence assay; format: functional
Plasmodium falciparum [10] = experiment: Antiplasmodial activity against synchronized ring stage artemisinin-sensitive Plasmodium falciparum F32 assessed as number of days required to reach 3% initial parasitemia by measuring median recrudescence time at 18 uM incubated for 48 hrs by recrudescence assay; format: functional
Plasmodium falciparum [11] = experiment: Antiplasmodial activity against atovaquone-resistant Plasmodium falciparum clinical isolate Q120 assessed as inhibition of parasite growth incubated for 48 hrs of SYBR green fluorescence-based method; format: functional, organism-based
Plasmodium falciparum [12] = experiment: Antiplasmodial activity against chloroquine-resistant Plasmodium falciparum clinical isolate IPC8262 assessed as inhibition of parasite growth incubated for 48 hrs of SYBR green fluorescence-based method; format: functional, organism-based
Plasmodium falciparum [13] = experiment: Antiplasmodial activity against synchronized ring stage artemisinin-resistant Plasmodium falciparum F32 assessed as decrease in parasite recrudescence by measuring time required for parasites to reach initial parasitemia at […] incubated for 54 hrs by recrudescence assay; format: functional
Plasmodium falciparum [14] = experiment: Antiplasmodial activity against chloroquine-resistant Plasmodium falciparum clinical isolate IPC8461 assessed as inhibition of parasite growth incubated for 48 hrs of SYBR green fluorescence-based method; format: functional, organism-based
[15] = system: Plasmodium vinckei petteri; experiment: Antiplasmodial activity Plasmodium vinckei petteri infected in female Swiss mouse model assessed as reduction in parasitemia at 0.1 mg/kg/day, ip administered for 4 days starting from 4 hrs post infection and measured on day 5 by giemsa staining based analysis; format: functional, organism-based; conditions: time 5.0 day
[16] = Stability in human plasma assessed as parent compound remaining at 1 uM measured after 2 hrs by LC-MS/MS analysis; format: ADME, cell-free; conditions: read-out: Stability
[17] = system: Plasmodium vinckei petteri; experiment: Antiplasmodial activity Plasmodium vinckei petteri infected in female Swiss mouse model assessed as reduction in parasitemia administered orally for 4 days starting from 4 hrs post infection and measured on day 30; format: functional; conditions: 720 h, route po, time 30 day
[18] = system: Plasmodium vinckei petteri; experiment: Antiplasmodial activity Plasmodium vinckei petteri infected in female Swiss mouse model assessed as reduction in parasitemia at 1 mg/kg/day, ip administered for 4 days starting from 4 hrs post infection and measured on day 5 by giemsa staining based analysis relative to control; format: functional; design: scale not given: the % may be the effect or the level left; conditions: time 5 day
[19] = system: Plasmodium vinckei petteri; experiment: Antiplasmodial activity Plasmodium vinckei petteri infected in female Swiss mouse model assessed as reduction in parasitemia administered intraperitoneally for 4 days starting from 4 hrs post infection and measured on day 30; format: functional; conditions: 720 h, route ip, time 30 day
Plasmodium falciparum [20] = experiment: Antiplasmodial activity against synchronized ring stage artemisinin-sensitive Plasmodium falciparum F32 assessed as number of days required to reach 3% initial parasitemia by measuring median recrudescence time at 1 uM incubated for 48 hrs by recrudescence assay; format: functional
[21] = system: Plasmodium vinckei petteri; experiment: Antiplasmodial activity Plasmodium vinckei petteri infected in female Swiss mouse model assessed as reduction in parasitemia at 10 mg/kg/day, ip administered for 4 days starting from 4 hrs post infection and measured on day 30 by giemsa staining based analysis; format: functional, organism-based; conditions: time 30.0 day
[22] = system: Plasmodium vinckei petteri; experiment: Antiplasmodial activity Plasmodium vinckei petteri infected in female Swiss mouse model assessed as reduction in parasitemia at 10 mg/kg/day, ip administered for 4 days starting from 4 hrs post infection and measured on day 5 by giemsa staining based analysis; format: functional, organism-based; conditions: time 5.0 day
[23] = system: Plasmodium vinckei petteri; experiment: Antiplasmodial activity Plasmodium vinckei petteri infected in female Swiss mouse model assessed as reduction in parasitemia at 25 mg/kg/day, po administered for 4 days starting from 4 hrs post infection and measured on day 5 by giemsa staining based analysis relative to control; format: functional; design: scale not given: the % may be the effect or the level left; conditions: time 5 day
[24] = Toxicity in female Swiss mouse model infected with Plasmodium vinckei petteri assessed as clinical signs at 0.1 to 10 mg/kg/day, ip administered for 4 days and measured after 30 days; format: organism-based; conditions: in vivo, 720 h, dose 0.1-10 mg/kg/day, time 30 day
Plasmodium falciparum [25] = experiment: Antiplasmodial activity against synchronized ring stage artemisinin-resistant Plasmodium falciparum F32 assessed as number of days required to reach 3% initial parasitemia by measuring median recrudescence time at 0.5 uM incubated for 48 hrs by recrudescence assay; format: functional
Heme [26] = experiment: Inhibition of heme polymerization in acetate buffer at pH 5 assessed as reduction in beta-hematin formation at 1.2 molar ratio of drug to hemin incubated for 18 hrs by infrared spectroscopic analysis relative to control
Plasmodium falciparum [27] = experiment: Antiplasmodial activity against synchronized ring stage artemisinin-sensitive Plasmodium falciparum F32 assessed as number of days required to reach 3% initial parasitemia by measuring median recrudescence time at 0.5 uM incubated for 48 hrs by recrudescence assay; format: functional
Plasmodium falciparum [28] = experiment: as §1, with “recrudescence by measuring time required for parasites to reach initial parasitemia” for “recrudescence”; format: functional
[29] = Thermal stability at 60 degreeC incubated for 2 months; format: physicochemical; conditions: 1460 h

Cc1cc(O)c2c(c1)C(=O)c1cc(OCCOCCN3CCN(c4ccnc5cc(Cl)ccc45)CC3)cc(O)c1C2=O
pIC50 (Plasmodium falciparum [1]): 6.08
CC50 at 48 h [2]: 12000 nM
selectivity ratio [3]: 15

CCOCCOc1cc(O)c2c(c1)C(=O)c1cc(C)cc(O)c1C2=O
pIC50 (Plasmodium falciparum [1]): < 5.00
inhibition (Heme [4]): 100%
pIC50 (Plasmodium falciparum [5]): < 5.00
Activity (Plasmodium falciparum [6]): inactive

C[C@@H]1CC[C@H]2[C@@H](C)C(=O)O[C@@H]3O[C@@]4(C)CC[C@@H]1[C@]32OO4 [ARTEMISININ]
ED50 [7]: 17 mg/kg/day
ED50 [8]: 4 mg/kg/day
Time (Plasmodium falciparum [9]): 10 days
Time (Plasmodium falciparum [10]): 15 days

C[C@H]1[C@@H](O)O[C@@H]2O[C@@]3(C)CC[C@H]4[C@H](C)CC[C@@H]1[C@@]24OO3 [ARTENIMOL]
pIC50 (Plasmodium falciparum [11]): 8.62
pIC50 (Plasmodium falciparum [12]): 8.60
CC50 at 48 h [2]: 30000 nM
Time (Plasmodium falciparum [13]): 8 days
pIC50 (Plasmodium falciparum [14]): 8.59
pIC50 (Plasmodium falciparum [5]): 8.66
selectivity ratio [3]: 12000

Cc1cc(O)c2c(c1)C(=O)c1cc(OCCN3CCN(c4ccnc5cc(Cl)ccc45)CC3)cc(O)c1C2=O
pIC50 (Plasmodium falciparum [1]): 6.11
CC50 at 48 h [2]: > 10000 nM
selectivity ratio [3]: > 13

Cc1cc(O)c2c(c1)C(=O)c1cc(OCCOCCNCCNc3ccnc4cc(Cl)ccc34)cc(O)c1C2=O
Activity [15]: inactive
remaining at 2 h, 1 µM [16]: 100%
pIC50 (Plasmodium falciparum [1]): 7.27
pIC50 (Plasmodium falciparum [11]): 7.62
pIC50 (Plasmodium falciparum [12]): 7.48
ED50 [17]: ~25 mg/kg/day
CC50 at 48 h [2]: 12000 nM
Activity [18]: 17%
ED50 [19]: 4 mg/kg/day
Time (Plasmodium falciparum [20]): >30 days
pIC50 (Plasmodium falciparum [14]): 7.08
Activity [21]: Active; Recrudescence Not Observed
Activity [22]: Not active; No Detectable Parasitemia Observed
Activity [23]: 44%
Activity [24]: Non-toxic
pIC50 (Plasmodium falciparum [5]): 7.23
Time (Plasmodium falciparum [25]): 23 days
inhibition (Heme [26]): 100%
Time (Plasmodium falciparum [27]): 26 days
Time (Plasmodium falciparum [28]): >22 days
selectivity ratio [3]: 222
Stability [29]: Stable
